Data from PMC10786919, “Design-rules for stapled peptides with in vivo activity and their application to Mdm2/X antagonists” (Nature Communications, 2024).
Converted amounts (≈) assume the structure as drawn. Like-named read-outs stand apart in the source and are kept apart here. Positions of bridges follow the written chain, without caps; N, C: chain ends. Non-standard residues stand in square brackets, D forms with d. Residues, ends and D or L forms follow the SMILES beside them. Lys(N3) = [N-]=[N+]=NCCCC[C@H](N)C(=O)O; R8 = C=CCCCCCC[C@@](C)(N)C(=O)O; Cba = N[C@@H](CC1CCC1)C(=O)O; S5 = C=CCCC[C@](C)(N)C(=O)O; Aib = CC(C)(N)C(=O)O; βAla = NCCC(=O)O; Sar = CNCC(=O)O

Columns and labels:
[1] = Solubility assay (kinetic solubility, PBS pH 7); assay type: physicochemical; settings: for solubility kinetic: pH 7, aqueous buffer, kinetic from dmso stock, read-out: Solubility
In short: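 Quantitation uses an external standard at 100 µM, prepared from 10 mM stock in acetonitrile:methanol:DMSO (10:80:10). Solubility (µM) = (peak area of sample ÷ peak area of standard) × standard concentration.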

[2] = tested on: Ca Ski cell line; settings: 72 h
Experimental: (§1) The medium for CellSensor™ p53RE-bla HCT-116 cells was McCoy’s 5 A Medium (GIBCO16600-002) supplied with 10% FBS (Hyclone, SH30406.05), 100 U/100ug/ml of Pen/Strep (SolarBio, P1400) and 5 μg/ml of blasticidin (GIBCO, A11139). The medium for Ca Ski cells was RPMI1640 (Hyclone, SH3080901B) supplied with 10% FBS and 100 U/100ug/ml of Pen/Strep. All cells were kept in humidified incubators with 5% CO2 at 37 °C. Culture media was changed after one day of subculturing and cells were passed again when there was 70–80% confluence. One day before the assay, the cells were trypsinized, collected, counted and viability was determined. […] The plates were kept in humidified incubators with 5% CO2 at 37 °C overnight. Compounds were prepared as a 10 point, 3x serial dilution in 100% DMSO, starting from a top concentration of 10 mM. […] At the end of the incubation the assay plate was equilibrated at room temperature for approximately 30 minutes prior to the addition of 25 uL of CellTiter-Glo® 2.0 Reagent. The assay plate was mixed for 2 minutes on an orbital shaker to induce cell lysis. Next, the plate was incubated at room temperature for 10 minutes to stabilize the luminescent signal prior to recording the luminescence on a plate reader.

[3] = tested on: CellSensor p53RE-bla HCT-116 Cell Line; settings: 72 h
Experimental: as §1

[4] = in vitro
In short: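 Azido-peptide permeability was read as loss of NanoBRET signal (donor 450 nm, acceptor 610 nm) after adding NanoBret618-azide at 10 μM final.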

[5] = Experimental LogD (partition coefficient); settings: for logD: not stated, Partition Coeff LogD
[6] = Lactate dehydrogenase (LDH) release assay; assay type: cell-based
In short: (§2)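 HCT116 cells stably carrying a p53-responsive β-lactamase reporter, seeded at 8000 cells/well, exposed to compound with 0.5% final DMSO. LDH release read with the CytoTox-ONE membrane integrity kit. Values are geometric means of at least three biological replicates.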

[7] = tested on: HCT116 cells; experiment: Lactate dehydrogenase (LDH) release assay; assay type: cell-based
In short: as §2

[8] = physchem
[9] = Nanoclick permeability assay EC50
[10] = 0% FBS 4Hr, read-out: LDH: Cytotoxicity assay: EC50

CC(=O)N[C@@H](CCCCN=[N+]=[N-])C(=O)NCCC(=O)N[C@@H](CC(C)C)C(=O)N[C@H](C(=O)N[C@@H](Cc1ccccc1)C(=O)N[C@]1(C)CCCCCCC=CCCC[C@@](C)(C(=O)N[C@@H](C)C(=O)N[C@@H](C)C(=O)N[C@@H](Cc2ccccc2)C(=O)NC(C)(C)C(=O)N[C@@H](C)C(=O)N[C@@H](C)C(N)=O)NC(=O)[C@H](CC2CCC2)NC(=O)[C@H](CCC(N)=O)NC(=O)[C@H](C)NC(=O)[C@H](Cc2c[nH]c3ccccc23)NC(=O)[C@H](Cc2ccc(O)cc2)NC(=O)[C@H](CCC(=O)O)NC1=O)[C@@H](C)O [MP-801] (Ac-[Lys(N3)][βAla]LTF[R8]EYWAQ[Cba][S5]AAF[Aib]AA-NH2; staple 6-13)
Solubility ([1]; pH 7, PBS): Poorly Behaved | EC50 [2]: 19.1 µM | EC50 [3]: 4.58 µM | cell entry EC50 [4, 9]: 4710 nM | Partition Coeff LogD [5]: Poorly Behaved

CC(=O)N[C@@H](CCCCN=[N+]=[N-])C(=O)NCCC(=O)N[C@@H](CC(C)C)C(=O)N[C@H](C(=O)N[C@@H](Cc1ccccc1)C(=O)N[C@]1(C)CCCCCCC=CCCC[C@@](C)(C(=O)N[C@@H](C)C(=O)N[C@@H](C)C(=O)N[C@@H](C)C(=O)N[C@@H](C)C(=O)N[C@@H](C)C(N)=O)NC(=O)[C@H](CC2CCC2)NC(=O)[C@H](CCC(N)=O)NC(=O)[C@H](C)NC(=O)[C@H](Cc2c[nH]c3ccccc23)NC(=O)[C@H](Cc2ccc(O)cc2)NC(=O)[C@H](CCC(=O)O)NC1=O)[C@@H](C)O [MP-685] (Ac-[Lys(N3)][βAla]LTF[R8]EYWAQ[Cba][S5]AAAAA-NH2; staple 6-13)
EC50 ([6]; LDH: Cytotoxicity assay EC50): > 50.7 µM | EC50 [2]: 22.8 µM | EC50 [3]: 9.55 µM | cell entry EC50 [4, 9]: > 10000 nM

CC(=O)N[C@@H](CCCCN=[N+]=[N-])C(=O)NCCC(=O)N[C@@H](CC(C)C)C(=O)N[C@H](C(=O)N[C@@H](Cc1ccccc1)C(=O)N[C@]1(C)CCCCCCC=CCCC[C@@](C)(C(=O)N[C@@H](C)C(=O)N[C@@H](C)C(=O)N[C@H](C)C(=O)N[C@@H](C)C(=O)N[C@@H](C)C(=O)N[C@H](C)C(N)=O)NC(=O)[C@H](CC2CCC2)NC(=O)[C@H](CCC(N)=O)NC(=O)[C@H](C)NC(=O)[C@H](Cc2c[nH]c3ccccc23)NC(=O)[C@H](Cc2ccc(O)cc2)NC(=O)[C@H](CCC(=O)O)NC1=O)[C@@H](C)O [MP-425] (Ac-[Lys(N3)][βAla]LTF[R8]EYWAQ[Cba][S5]AA[dA]AA[dA]-NH2; staple 6-13)
EC50 ([6]; LDH: Cytotoxicity assay EC50): > 50.7 µM | solubility kinetic ([1]; pH 7, PBS): 185 µM (≈ 401 µg/mL) | EC50 [2]: 47.3 µM | EC50 [3]: 1.27 µM

CC(=O)N[C@@H](CCCCN=[N+]=[N-])C(=O)NCCC(=O)N[C@@H](CC(C)C)C(=O)N[C@H](C(=O)N[C@@H](Cc1ccccc1)C(=O)N[C@]1(C)CCCCCCC=CCCC[C@@](C)(C(=O)NCC(=O)N[C@@H](C)C(=O)N[C@@H](C)C(N)=O)NC(=O)[C@H](CC2CCC2)NC(=O)[C@H](CCC(N)=O)NC(=O)[C@H](C)NC(=O)[C@H](Cc2c[nH]c3ccccc23)NC(=O)[C@H](Cc2ccc(O)cc2)NC(=O)[C@H](CCC(=O)O)NC1=O)[C@@H](C)O [MP-798] (Ac-[Lys(N3)][βAla]LTF[R8]EYWAQ[Cba][S5]GAA-NH2; staple 6-13)
EC50 [6, 10]: > 50.6 µM | EC50 ([6]; 10% FBS 4Hr, read-out: LDH: Cytotoxicity assay: EC50): > 50 µM | LDH: Cytotoxicity assay: % Effect ([7]; 0% FBS 4Hr): 16.01% | LDH: Cytotoxicity assay: % Effect ([7]; 0% FBS 16Hr): 1.68% | LDH: Cytotoxicity assay: % Effect ([7]; 10% FBS 4Hr): 16.43% | solubility kinetic ([1]; pH 7, PBS): 80 µM (≈ 155 µg/mL) | cell entry EC50 [4]: 82.9 nM | EPSA [8]: 212 A^2 | logD [5]: 2.79

CC(=O)N[C@@H](CCCCN=[N+]=[N-])C(=O)NCCC(=O)N[C@@H](CC(C)C)C(=O)N[C@H](C(=O)N[C@@H](Cc1ccccc1)C(=O)N[C@]1(C)CCCCCCC=CCCC[C@@](C)(C(=O)N[C@@H](CO)C(=O)N[C@@H](C)C(=O)N[C@@H](C)C(N)=O)NC(=O)[C@H](CC2CCC2)NC(=O)[C@H](CCC(N)=O)NC(=O)CN(C)C(=O)[C@H](Cc2c[nH]c3ccccc23)NC(=O)[C@H](Cc2ccc(O)cc2)NC(=O)[C@H](CCC(=O)O)NC1=O)[C@@H](C)O [MP-351] (Ac-[Lys(N3)][βAla]LTF[R8]EYW[Sar]Q[Cba][S5]SAA-NH2; staple 6-13)
EC50 ([6]; LDH: Cytotoxicity assay: EC50): > 50 µM | LDH: Cytotoxicity assay: % Effect [7]: -3.92% | solubility kinetic ([1]; pH 7, PBS): 29 µM (≈ 57.1 µg/mL) | cell entry EC50 [4, 9]: > 10000 nM | EPSA [8]: 193 A^2 | logD [5]: 2.26

CC(=O)N[C@@H](CCCCN=[N+]=[N-])C(=O)NCCC(=O)NCC(=O)N[C@H](C(=O)N[C@@H](Cc1ccccc1)C(=O)N[C@]1(C)CCCCCCC=CCCC[C@@](C)(C(=O)N[C@@H](CO)C(=O)N[C@@H](C)C(=O)N[C@@H](C)C(N)=O)NC(=O)[C@H](CC2CCC2)NC(=O)[C@H](CCC(N)=O)NC(=O)CNC(=O)[C@H](Cc2c[nH]c3ccccc23)NC(=O)[C@H](Cc2ccc(O)cc2)NC(=O)CNC1=O)[C@@H](C)O [MP-692] (Ac-[Lys(N3)][βAla]GTF[R8]GYWGQ[Cba][S5]SAA-NH2; staple 6-13)
EC50 ([6]; LDH: Cytotoxicity assay: EC50): > 50.6 µM | LDH: Cytotoxicity assay: % Effect [7]: 2.18% | solubility kinetic ([1]; pH 7, PBS): 2 µM (≈ 3.66 µg/mL) | cell entry EC50 [4, 9]: 1390 nM | EPSA [8]: 200 A^2 | logD [5]: 2.73

CC(=O)N[C@@H](CCCCN=[N+]=[N-])C(=O)NCCC(=O)N[C@@H](CC(C)C)C(=O)N[C@H](C(=O)N[C@@H](Cc1ccccc1)C(=O)N[C@]1(C)CCCCCCC=CCCC[C@@](C)(C(=O)N[C@@H](CCO)C(=O)N[C@@H](CCO)C(=O)N[C@@H](Cc2ccccc2)C(=O)N[C@@H](CCO)C(=O)N[C@@H](CCO)C(=O)N[C@@H](Cc2ccccc2)C(N)=O)NC(=O)[C@H](CC2CCC2)NC(=O)[C@H](CCC(N)=O)NC(=O)[C@H](C)NC(=O)[C@H](Cc2c[nH]c3ccccc23)NC(=O)[C@H](Cc2ccc(O)cc2)NC(=O)[C@H](CCC(=O)O)NC1=O)[C@@H](C)O [MP-802]
EC50 ([6]; LDH: Cytotoxicity assay EC50): > 50.7 µM | Solubility [1]: P.B. | EC50 [3]: 4.58 µM | cell entry EC50 [4, 9]: 9160 nM | logD [5]: 3.08

CC(=O)N[C@@H](CCCCN=[N+]=[N-])C(=O)NCCC(=O)N[C@@H](CC(C)C)C(=O)N[C@H](C(=O)N[C@@H](Cc1ccccc1)C(=O)N[C@]1(C)CCCCCCC=CCCC[C@@](C)(C(=O)N[C@@H](CO)C(=O)N[C@@H](C)C(=O)N[C@@H](C)C(N)=O)NC(=O)[C@H](C)NC(=O)[C@H](CCC(N)=O)NC(=O)[C@H](C)NC(=O)[C@H](Cc2c[nH]c3ccccc23)NC(=O)[C@H](Cc2ccc(O)cc2)NC(=O)[C@H](CCC(=O)O)NC1=O)[C@@H](C)O [MP-894, AZIDE-ATSP-7041 (CBA10 TO A)] (Ac-[Lys(N3)][βAla]LTF[R8]EYWAQA[S5]SAA-NH2; staple 6-13)
EC50 [6, 10]: > 50 µM | EC50 ([6]; 0% FBS 16Hr, read-out: LDH: Cytotoxicity assay: EC50): > 50 µM | LDH: Cytotoxicity assay: % Effect ([7]; 0% FBS 4Hr): 3.381% | LDH: Cytotoxicity assay: % Effect ([7]; 0% FBS 16Hr): 18.53% | solubility kinetic ([1]; pH 7, PBS): 93 µM (≈ 178 µg/mL) | cell entry EC50 [4]: 1330 nM | EPSA [8]: 198 A^2 | logD [5]: 2.59

CC(=O)N[C@@H](CCCCN=[N+]=[N-])C(=O)N[C@@H](CO)C(=O)NCC(=O)N[C@@H](CO)C(=O)N[C@@H](CC(C)C)C(=O)N[C@H](C(=O)N[C@@H](Cc1ccccc1)C(=O)N[C@]1(C)CCCCCCC=CCCC[C@@](C)(C(=O)N[C@@H](CO)C(=O)N[C@@H](C)C(=O)N[C@@H](C)C(N)=O)NC(=O)[C@H](CC2CCC2)NC(=O)[C@H](CCC(N)=O)NC(=O)[C@H](C)NC(=O)[C@H](Cc2c[nH]c3ccccc23)NC(=O)[C@H](Cc2ccc(O)cc2)NC(=O)[C@H](CCC(=O)O)NC1=O)[C@@H](C)O [MP-619]
EC50 ([6]; LDH: Cytotoxicity assay: EC50): > 50.6 µM | LDH: Cytotoxicity assay: % Effect [7]: 11.42% | solubility kinetic ([1]; pH 7, PBS): 110 µM (≈ 235 µg/mL) | cell entry EC50 [4, 9]: 630 nM | EPSA [8]: 227 A^2 | logD [5]: 2.67
